Test results taken from patent US10294202B2, “Pyrrolidinones as herbicides” (FMC Corporation, priority 2013, dated 2019).

Experiments:
ryegrass, Italian = test: Test A pre-/postemergence herbicide test; assay type: in vivo, Lolium multiflorum
Procedure, shortened: (§1)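 Greenhouse pot test with pre- and postemergence application of surfactant-containing solvent formulations. Postemergence plants were 2–10 cm, one- to two-leaf stage. Response scored visually after ~10 days, 0 (no effect) to 100 (complete control).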

pigweed = test: Test A pre-/postemergence herbicide test; assay type: in vivo, Amaranthus retroflexus
Procedure, shortened: as §1

sedge, umbrella = test: Test B flooded paddy test; assay type: in vivo, Cyperus difformis; conditions: Flood, scale of 0 to 100 where 0 is no effect and 100 is complete control
Procedure, shortened: (§2)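 Treatment was made at the 2-leaf stage by dosing the standing floodwater, kept 3 cm above soil level for the whole test. Greenhouse exposure lasted 13 to 15 days. Response is a visual percent rating relative to controls, where a dash indicates no test result.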

ragweed = test: Test A pre-/postemergence herbicide test; assay type: in vivo, Ambrosia elatior
Procedure, shortened: as §1

kochia = test: Test A pre-/postemergence herbicide test; assay type: in vivo, Kochia scoparia
Procedure, shortened: as §1

rice = test: Test B flooded paddy test; assay type: in vivo, Oryza sativa; conditions: Flood, scale of 0 to 100 where 0 is no effect and 100 is complete control
Procedure, shortened: as §2

barnyardgrass [1] = test: Test B flooded paddy test; assay type: in vivo, Echinochloa crus-galli; conditions: Flood, scale of 0 to 100 where 0 is no effect and 100 is complete control
Procedure, shortened: as §2

giant foxtail = test: Test A pre-/postemergence herbicide test; assay type: in vivo, Setaria faberii
Procedure, shortened: as §1

corn = test: Test A pre-/postemergence herbicide test; assay type: in vivo, Zea mays; conditions: Postemergence
Procedure, shortened: as §1

barnyardgrass [2] = test: Test A pre-/postemergence herbicide test; assay type: in vivo, Echinochloa crus-galli
Procedure, shortened: as §1

blackgrass = test: Test A postemergence herbicide test; assay type: in vivo, Alopecurus myosuroides
Procedure, shortened: (§3)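 Visual injury rating, 0 (no effect) to 100 (complete control), versus untreated controls ~10 days after treatment. Postemergence spray applied at one- to two-leaf stage, plants 2–10 cm tall, potted in loam soil/sand. Greenhouse-held.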

ducksalad = test: Test B flooded paddy test; assay type: in vivo, Heteranthera limosa; conditions: Flood, scale of 0 to 100 where 0 is no effect and 100 is complete control
Procedure, shortened: as §2

galium = test: Test A postemergence herbicide test; assay type: in vivo, Galium aparine
Procedure, shortened: as §3

wheat = test: Test A pre-/postemergence herbicide test; assay type: in vivo, Triticum aestivum; conditions: Postemergence
Procedure, shortened: as §1

[3] = Postemergence, 125 g ai/ha, visual rating on 0 to 100 scale (0 no effect, 100 complete control), approx. 10 days
[4] = Postemergence, 500 g ai/ha, 0 to 100 scale (0 no effect, 100 complete control)
[5] = Preemergence, 125 g ai/ha, 0 to 100 scale where 0 is no effect and 100 is complete control
[6] = preemergence, 500 g ai/ha, 0 to 100 scale, 0 is no effect and 100 is complete control
[7] = Postemergence, 125 g ai/ha, 0 to 100 scale, 0 is no effect, 100 is complete control
[8] = 125 g ai/ha, 0 to 100 scale, 0 is no effect, 100 is complete control
[9] = 500 g ai/ha, 0 to 100 scale (0 no effect, 100 complete control)
[10] = 125 g ai/ha, visual rating, 0 to 100 scale, 0 no effect, 100 complete control, approximately 10 days, preemergence

Compound | Plant response rating, Ryegrass, Italian (ryegrass, Italian; [6]) | Plant response rating, Pigweed (pigweed; [6]) | Plant response rating, Sedge, Umbrella (sedge, umbrella; 500 g ai/ha) | Plant response rating, Ragweed (ragweed; [6]) | Plant response rating, Kochia (kochia; [7]) | Plant response rating, Kochia (kochia; [6]) | Plant response rating, Rice (rice; 500 g ai/ha) | Plant response rating, Barnyardgrass (barnyardgrass [1]; 500 g ai/ha) | Plant response rating, Foxtail, Giant (giant foxtail; [7]) | Plant response rating, Foxtail, Giant (giant foxtail; [6]) | Plant response rating, Corn (corn; [8]) | Plant response rating, Barnyardgrass (barnyardgrass [2]; [7]) | Plant response rating, Barnyardgrass (barnyardgrass [2]; [6]) | Plant response rating, Blackgrass (blackgrass; [8]) | Plant response rating, Ducksalad (ducksalad; 500 g ai/ha) | Plant response rating, Galium (galium; [8]) | Plant response rating, Ryegrass, Italian (ryegrass, Italian; [10]) | Plant response rating, Ryegrass, Italian (ryegrass, Italian; [7]) | Ryegrass, Italian plant response rating (0 to 100 scale, 0 is no effect, 100 is complete control) (ryegrass, Italian; Postemergence, 500 g ai/ha) | Plant response rating, Pigweed (pigweed; [10]) | further results
O=C1NCC(c2ccc(Cl)c(Cl)c2)C1C(=O)Nc1ccccc1Cl (racemic) [Compound 273] | 0 | 0 | 0 | 0 | 0 | 70 | 0 | 0 | 20 | 90 | 0 | 10 | 80 | 0 | 70 | 0 |  |  |  |  | Plant response rating, Ryegrass, Italian (ryegrass, Italian; [3]): 0; Plant response rating, Ryegrass, Italian (ryegrass, Italian; [4]): 0; Plant response rating, Ryegrass, Italian (ryegrass, Italian; [5]): 0; Plant response rating, Pigweed (pigweed; [3]): 0; Plant response rating, Pigweed (pigweed; [4]): 0; Plant response rating, Pigweed (pigweed; [5]): 0; Plant response rating, Ragweed (ragweed; [3]): 0; Plant response rating, Ragweed (ragweed; [4]): 0; Plant response rating, Ragweed (ragweed; [5]): 0; Plant response rating, Kochia (kochia; [4]): 0; Plant response rating, Kochia (kochia; [5]): 0; Plant response rating, Foxtail, Giant (giant foxtail; [4]): 70; Plant response rating, Foxtail, Giant (giant foxtail; [5]): 90; Plant response rating, Corn (corn; [9]): 0; Plant response rating, Barnyardgrass (barnyardgrass [2]; [4]): 30; Plant response rating, Barnyardgrass (barnyardgrass [2]; [5]): 50; Plant response rating, Blackgrass (blackgrass; [9]): 0; Plant response rating, Galium (galium; [9]): 50; Plant response rating, Wheat (wheat; 125 g ai/ha, visual rating on 0 to 100 scale (0 no effect, 100 complete control), approx. 10 days): 0; Plant response rating, Wheat (wheat; [9]): 0
CCCN1CC(c2ccc(C(F)(F)F)cc2)C(C(=O)Nc2ccccc2F)C1=O (stereo not drawn) [Compound 181] | 0 | 0 | 0 | 0 | 10 | 80 | 0 | 0 | 0 | 70 | 0 | 0 | 0 | 40 | 0 | 0 | 0 | 0 | 0 | 0 | Plant response rating, Pigweed (pigweed; [7]): 0; Pigweed plant response rating (0 to 100 scale, 0 is no effect, 100 is complete control) (pigweed; Postemergence, 500 g ai/ha): 50; Plant response rating, Ragweed (ragweed; [10]): 0; Plant response rating, Ragweed (ragweed; [7]): 0; Ragweed plant response rating (0 to 100 scale, 0 is no effect, 100 is complete control) (ragweed; Postemergence, 500 g ai/ha): 0; Plant response rating, Kochia (kochia; [10]): 50; Kochia plant response rating (0 to 100 scale, 0 is no effect, 100 is complete control) (kochia; Postemergence, 500 g ai/ha): 70; Plant response rating, Foxtail, Giant (giant foxtail; [10]): 10; Foxtail, Giant plant response rating (0 to 100 scale, 0 is no effect, 100 is complete control) (giant foxtail; Postemergence, 500 g ai/ha): 0; Corn plant response rating (0 to 100 scale, 0 is no effect, 100 is complete control) (corn; 500 g ai/ha): 0; Plant response rating, Barnyardgrass (barnyardgrass [2]; [10]): 0; Barnyardgrass plant response rating (0 to 100 scale, 0 is no effect, 100 is complete control) (barnyardgrass [2]; Postemergence, 500 g ai/ha): 0; Blackgrass plant response rating (0 to 100 scale, 0 is no effect, 100 is complete control) (blackgrass; 500 g ai/ha): 50; Galium plant response rating (0 to 100 scale, 0 is no effect, 100 is complete control) (galium; 500 g ai/ha): 0; Plant response rating, Wheat (wheat; [8]): 0; Wheat plant response rating (0 to 100 scale, 0 is no effect, 100 is complete control) (wheat; 500 g ai/ha): 0
CCCN1CC(c2ccc(C(F)(F)F)cc2)C(C(=O)Nc2cccc(F)c2F)C1=O (stereo not drawn) [Compound 182] | 0 | 0 | 0 | 0 | 0 | 0 | 0 | 0 | 0 | 70 | 0 | 0 | 0 | 0 | 30 | 0 | 0 | 0 | 0 | 0 | Plant response rating, Pigweed (pigweed; [7]): 0; Pigweed plant response rating (0 to 100 scale, 0 is no effect, 100 is complete control) (pigweed; Postemergence, 500 g ai/ha): 0; Plant response rating, Ragweed (ragweed; [10]): 0; Plant response rating, Ragweed (ragweed; [7]): 0; Ragweed plant response rating (0 to 100 scale, 0 is no effect, 100 is complete control) (ragweed; Postemergence, 500 g ai/ha): 0; Plant response rating, Kochia (kochia; [10]): 0; Kochia plant response rating (0 to 100 scale, 0 is no effect, 100 is complete control) (kochia; Postemergence, 500 g ai/ha): 0; Plant response rating, Foxtail, Giant (giant foxtail; [10]): 50; Foxtail, Giant plant response rating (0 to 100 scale, 0 is no effect, 100 is complete control) (giant foxtail; Postemergence, 500 g ai/ha): 10; Corn plant response rating (0 to 100 scale, 0 is no effect, 100 is complete control) (corn; 500 g ai/ha): 0; Plant response rating, Barnyardgrass (barnyardgrass [2]; [10]): 0; Barnyardgrass plant response rating (0 to 100 scale, 0 is no effect, 100 is complete control) (barnyardgrass [2]; Postemergence, 500 g ai/ha): 0; Blackgrass plant response rating (0 to 100 scale, 0 is no effect, 100 is complete control) (blackgrass; 500 g ai/ha): 0; Galium plant response rating (0 to 100 scale, 0 is no effect, 100 is complete control) (galium; 500 g ai/ha): 0; Plant response rating, Wheat (wheat; [8]): 0; Wheat plant response rating (0 to 100 scale, 0 is no effect, 100 is complete control) (wheat; 500 g ai/ha): 0
O=C1NCC(c2cccc(S(F)(F)(F)(F)F)c2)C1C(=O)Nc1cccc(F)c1F (stereo not drawn) [Compound 214] | 0 | 70 |  | 0 | 0 | 80 |  |  | 80 | 90 | 30 | 60 | 80 | 40 |  | 40 | 0 | 10 | 30 | 0 | Plant response rating, Pigweed (pigweed; [7]): 0; Pigweed plant response rating (0 to 100 scale, 0 is no effect, 100 is complete control) (pigweed; Postemergence, 500 g ai/ha): 50; Plant response rating, Sedge, Umbrella (sedge, umbrella; 1000 g ai/ha): 0; Plant response rating, Ragweed (ragweed; [10]): 0; Plant response rating, Ragweed (ragweed; [7]): 0; Ragweed plant response rating (0 to 100 scale, 0 is no effect, 100 is complete control) (ragweed; Postemergence, 500 g ai/ha): 0; Plant response rating, Kochia (kochia; [10]): 0; Kochia plant response rating (0 to 100 scale, 0 is no effect, 100 is complete control) (kochia; Postemergence, 500 g ai/ha): 40; Plant response rating, Rice (rice; 1000 g ai/ha): 20; Plant response rating, Barnyardgrass (barnyardgrass [1]; 1000 g ai/ha): 75; Plant response rating, Foxtail, Giant (giant foxtail; [10]): 80; Foxtail, Giant plant response rating (0 to 100 scale, 0 is no effect, 100 is complete control) (giant foxtail; Postemergence, 500 g ai/ha): 90; Corn plant response rating (0 to 100 scale, 0 is no effect, 100 is complete control) (corn; 500 g ai/ha): 50; Plant response rating, Barnyardgrass (barnyardgrass [2]; [10]): 70; Barnyardgrass plant response rating (0 to 100 scale, 0 is no effect, 100 is complete control) (barnyardgrass [2]; Postemergence, 500 g ai/ha): 70; Blackgrass plant response rating (0 to 100 scale, 0 is no effect, 100 is complete control) (blackgrass; 500 g ai/ha): 70; Plant response rating, Ducksalad (ducksalad; 1000 g ai/ha): 90; Galium plant response rating (0 to 100 scale, 0 is no effect, 100 is complete control) (galium; 500 g ai/ha): 70; Plant response rating, Wheat (wheat; [8]): 0; Wheat plant response rating (0 to 100 scale, 0 is no effect, 100 is complete control) (wheat; 500 g ai/ha): 50
